The values below are quoted from earlier work in PMC3218206 (Chemical biology & drug design, 2011).

pKd: −log10 of the molar value.

For data set [1], the target named is Nrf2 14mer peptide (Homo sapiens). In words: ITC.

As to LQLDEETGEFLPIQ, the “displacement of Nrf2 from Keap1-Nrf2 complex” value in the data set with Keap1-Nrf2 complex is “effectively”.
On to Keap1 (from UniProt Q14145), for which, in data set [1], the negative-log Kd (pKd) was 7.70.
